# Laboratory results reported in patent US5747535A, “Selective thrombin inhibitors” (priority 1995, dated 1998).
# Target: bovine thrombin (Bos taurus, UniProt P00735)
# Assay: biochemical
# Text: The thrombin inhibitory effect of the compound of formula (I) according to the present invention can be identified by determination of a dissociation constant Ki represented by the following equation according to the known method described in literature [see, Methods in enzymology V. 80,p341-361;Biochemistry 27,p2144-2151 (1988)].
# The dissociation constant Ki denotes the degree of dissociation of the enzyme-thrombin inhibitor complex. […] Such dissociation constant can be determined by reacting thrombin with a certain substrate which develops a color when it is hydrolyzed by the action of thrombin, and then measuring the degree of color development as a function of time by means of spectrophotometry.
# Chromozym TH is hydrolyzed by thrombin to produce yellow para-nitroaniline. Accordingly, the amount of yellow para-nitroaniline thus produced can be measured as the change of absorbance in the course of time to determine the thrombin inhibitory activity of the compound according to the present invention. That is, the enzyme activity can be determined from the rate of change in absorbance and then can be directly connected with the ability of the thrombin inhibitor to inhibit the enzyme activity (see, Methods in Enzymology, V. 80,p341-361,Biochemistry 27, p2144-2151, 1988).
# The ability of the compound according to the present invention to inhibit the thrombin activity was determined as described in the following.
# 1160 μl of 0.1M tris buffered solution (pH 7.8) containing 150 mM NaCl and 0.1% PEG 8000 (polyethylene glycol, molecular weight about 8,000) was added to a 1.5 ml cuvette. Chromozym TH was dissolved in dimethylsulfoxide(DMSO) in the concentration of 10mM and the resulting solution was diluted with the said tris buffered solution to the concentration of 0.1 mM, which was then used as the substrate solution. 225 μl of 0.1 mM substrate solution thus prepared was added to the cuvette. The inhibitor solution was prepared by dissolving the thrombin inhibitor compound according to the present invention in dimethylsulfoxide in the concentration of 10 mg/ml and then diluting the resulting solution with the said tris buffered solution to the concentration of 0.1 mg/ml, 0.01 mg/ml, 0.001 mg/ml and 0.0001 mg/ml. The resulting inhibitor solution was taken in an amount corresponding to 0 to 10 μg as the inhibitor and then diluted with tris buffered solution to make the total volume of 100 μl which was added to the cuvette.
# 15 μl of bovine thrombin solution dissolved in above tris buffered solution in the concentration of 0.1 mg/ml was added to the cuvette to initiate the enzyme hydrolysis reaction. The amount of para-nitroaniline produced for 2 minutes from the moment the enzyme is added was monitored by measuring the absorbance at 381 nm. The continuous spectrum of absorbance to reaction time was depicted. The same experiments were conducted for various concentration of the inhibitor to obtain the continuous spectrum.
# In each spectrum, the initial velocity Vi was obtained from the slope within initial 30 seconds of the reaction time and then a graph for the reciprocal value of initial velocity(1/Vi) to the inhibitor concentration was depicted. From the graph, the primary equation satisfying the points depicted thereon was obtained and then the value Ki was calculated from the x intercept of the primary equation using the enzyme reaction equation.
# The velocity constant Ks was obtained using the same solution in the same concentration as in determination of the value Ki but using the following experimental procedure.
# 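Also: bovine thrombin cleaving the chromogenic substrate Chromozym TH, with para-nitroaniline release tracked as absorbance change over time to give initial rates, in Tris buffer at pH 7.8.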
row,Compound,Ki
1,"N=C(NN)c1ccc(C[C@H](NS(=O)(=O)c2ccc3ccccc3c2)C(=O)N(CCOCc2ccccc2)C2CCCC2)cc1 [Example 4, (S)-N-cyclopentyl-N-(2-benzyloxyethyl)-3-(4-amidrazonophenyl)-2-(2-naphthylsulfonylamino)propionamide]",0.345 µM
2,"CCN(C(=O)[C@H](Cc1ccc(C(=N)NN)cc1)NS(=O)(=O)c1ccc2ccccc2c1)C1CCCC1 [Example 6, (S)-N-cyclopentyl-N-ethyl-3-(4-amidrazonophenyl)-2-(2-naphthylsulfonylamino)propionamide]",0.00435 µM
3,"COc1cc(C)c(S(=O)(=O)N[C@@H](Cc2ccc(C(=N)NN)cc2)C(=O)N(C)C2CCCC2)c(C)c1C [Example 9, (S)-N-cyclopentyl-N-methyl-3-(4-amidrazonophenyl)-2-[(4-methoxy-2,3,6-trimethylbenzene)sulfonylamino]propionamide]",0.227 µM
4,"CN(C)C(=O)[C@H](Cc1ccc(C(=N)NN)cc1)NS(=O)(=O)c1ccc2ccccc2c1 [Example 13, (S)-N,N-dimethyl-3-(4-amidrazonophenyl)-2-(2-naphthylsulfonylamino)propionamide]",0.216 µM
5,"CN(C(=O)[C@H](Cc1ccc(C(=N)NN)cc1)NC(=O)Cc1cccc2ccccc12)C1CCCC1 [Example 17, (S)-3-[4-(amidrazono)-phenyl]-N-cyclopentyl-N-methyl-2-(2-naphthalen-1-yl-acetylamino)-propionamide]",0.016 µM
6,"CN(C(=O)[C@H](Cc1ccc(C(=N)NN)cc1)NS(=O)(=O)c1cccc2ccccc12)C1CCCC1 [Example 22, (S)-3-[4-(amidrazono)-phenyl]-N-cyclopentyl-N-methyl-2-(naphthalene-1-sulfonylamino)-propionamide]",0.017 µM
7,"CN(C(=O)[C@H](Cc1ccc(C(=N)NN)cc1)NC(=O)COc1ccc2ccccc2c1)C1CCCC1 [Example 24, (S)-3-[4-(amidrazono)-phenyl]-N-cyclopentyl-N-methyl-2-[2-(naphthalene-2-yl-oxy)acetylamino]-propionamide]",20.1 µM
8,"COC(=O)CN(C)C(=O)[C@H](Cc1ccc(C(=N)NN)cc1)NS(=O)(=O)c1ccc2ccccc2c1 [Example 25, {[3-(4-amidrazono-phenyl)-(S)-2-(naphthalene-2-sulfonylamino)-propionyl]-methyl-amino}-acetic acid methyl ester]",0.259 µM
9,"COC(=O)[C@H](C)N(C)C(=O)[C@H](Cc1ccc(C(=N)NN)cc1)NS(=O)(=O)c1ccc2ccccc2c1 [Example 27, (S)-2-{[3-(4-amidrazono-phenyl)-(S)-2-(naphthalene-2-sulfonylamino)-propionyl]-methyl-amino}propionic acid methyl ester]",0.065 µM
10,"COC(=O)[C@@H](C)N(C)C(=O)[C@H](Cc1ccc(C(=N)NN)cc1)NS(=O)(=O)c1ccc2ccccc2c1 [Example 29, (R)-2-{[3-(4-amidrazono-phenyl)-(S)-2-(naphthalene-2-sulfonylamino)-propionyl]-methyl-amino}-propionic acid methyl ester]",0.089 µM
11,"COC(=O)[C@@H](C(C)C)N(C)C(=O)[C@H](Cc1ccc(C(=N)NN)cc1)NS(=O)(=O)c1ccc2ccccc2c1 [Example 31, (R)-2-{[3-(4-amidrazono-phenyl)-(S)-2-(naphthalene-2-sulfonylamino)-propionyl]-methyl-amino}-3-methyl-butyric acid methyl ester]",0.165 µM
12,"COC(=O)CCN(C)C(=O)[C@H](Cc1ccc(C(=N)NN)cc1)NS(=O)(=O)c1ccc2ccccc2c1 [Example 33, 3-{[3-(4-amidrazono-phenyl)-(S)-2-(naphthalene-2-sulfonylamino)-propionyl]-methylamino}-propionic acid methyl ester]",0.035 µM
13,"COC(=O)CCCN(C)C(=O)[C@H](Cc1ccc(C(=N)NN)cc1)NS(=O)(=O)c1ccc2ccccc2c1 [Example 35, 4-{[3-(4-amidrazono-phenyl)-(S)-2-(naphthalene-2-sulfonylamino)-propionyl]-methyl-amino}-butyric acid methyl ester]",0.612 µM
